This passage reports melting point and inhibition of growth results from patent publication US20120088665A1, “FUNGICIDAL MIXTURES” (BASF SE, priority 2009, published 2012).

For data set [1], the system named is Phytophthora infestans. The data set can be described thus: microbe, parasite or virus in culture. The data set is classed as cell-based. Conditions: Phytophthora infestans, 168 h, read-out: Observed activity.
Data set [2] concerns Botrytis cinerea. As to the kind of experiment: Activity against the gray mold pathogen Botrytis cinerea in the microtiter test (Botrci). The data set is classed as cell-based. Conditions: Botrytis cinerea, 168 h, read-out: Observed activity.
In data set [3] the test system is Septoria tritici. As to the kind of experiment: Activity against the Septoria leaf spot pathogen Septoria tritici in the microtiter test (Septtr). Type of data set: cell-based. Conditions: Zymoseptoria tritici, 168 h, single active compound, conc 16 ppm, read-out: Observed activity.

`CC1COC(Cn2ncnc2S)(c2ccc(Oc3ccc(Cl)cc3)cc2Cl)O1` (stereo not shown) [I-5, 2-{2-[2-chloro-4-(4-chlorophenoxy)phenyl]-4-methyl-[1,3]dioxolan-2-ylmethyl}-2H-[1,2,4]triazole-3-thiol]: the melting point is 73.4 °C. For the same compound, the inhibition of growth at 1 ppm in data set [1] is 8%. Also, in data set [2] (conc 4 ppm), the inhibition of growth at 4 ppm turned out to be 36%.
`CC1(C)CC/C(=C\c2ccc(Cl)cc2)C1(O)Cn1ncnc1S` (stereo not shown) [I-22, 5-[1-(4-chlorophenyl)meth-(E)-ylidene]-1-(5-mercapto-[1,2,4]triazol-1-ylmethyl)-2,2-dimethylcyclopentanol] came in with a melting point of 176.5 °C. Further, in data set [1], the inhibition of growth at 1 ppm was found to be 6%. Also, the inhibition of growth at 16 ppm in data set [3] came out at 22%. Moreover, the inhibition of growth at 16 ppm in data set [2] (conc 16 ppm) amounted to 8%.
